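Values below derive from 48-hour exposures of cells grown in 96-well plates, with endpoints linearly interpolated between the two concentrations bracketing the appropriate inhibition level. GI50 = concentration required for 50% inhibition of growth.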 Activity calls are given as the source filed them. No stated cut-off is given here; in the data, active = GI50 up to about 1.1 µM and inactive = higher. Non-standard residues stand in square brackets, D forms with d. Square brackets hold non-standard residues; d marks the D form. Residues, ends and D or L forms follow the SMILES beside them. Peptide text beside a SMILES is read from it. * marks the point of attachment. ξ: configuration not given here. *: point of attachment. ξF = NC(Cc1ccccc1)C(=O)O; Ac5c = NC1(C(=O)O)CCCC1; Cbz = O=C(OCc1ccccc1)*; Boc = CC(C)(C)OC(=O)*; Aib = CC(C)(N)C(=O)O; tBu = CC(C)(C)* A value given as a limit tells only on which side of the number the result lay.

Some test systems named below: A549; UO-31; Hs-578T; Malme-3M; SF-295; CCRF-CEM; M14; OVCAR-4; HCC 2998; OVCAR-3; NCI-H522; HL-60; SK-MEL-2; DU-145; SNB-75; SF-268; UACC-62; OVCAR-8; MOLT-4; SR.
Assay in all cases: growth of human tumour cells (NCI), 48 h

Take `CCOC(=O)c1c2c(n(-c3ccc(OC)cc3)c1C)C(=O)C(=O)c1ccccc1-2`: the GI50 with A549 was 1.51 µM (inactive); in the test with UO-31, 2.12 µM (inactive); in the test with Hs-578T it was 2.18 µM (inactive); in the test with Malme-3M, 0.241 µM (active); in the test with SF-295, 1.61 µM (inactive); in the test with CCRF-CEM, 1.27 µM (inactive). Moreover, the GI50 in the test on M14 is 1.59 µM (inactive); in the test with OVCAR-4, 0.624 µM (active); in the test with HCC 2998 it was 1.73 µM (inactive); with OVCAR-3, 0.419 µM (active); in the test on NCI-H522 it was 2.71 µM (inactive); with HL-60, 0.0261 µM (active). Moreover, the GI50 is 3.27 µM (inactive) with SK-MEL-2; 1.52 µM (inactive) in the test with DU-145; 2.16 µM (inactive) in the test with SNB-75; 1.64 µM (inactive) in the test on SF-268; 1.6 µM (inactive) in the test on UACC-62; 0.687 µM (active) in the test on OVCAR-8.
Consider `CN(C)CCCn1c(Cc2ccccc2)nc2cc(C(F)(F)F)ccc21`, for which the GI50 in the test on A549 was 14.7 µM (inactive); in the test with UO-31, 1.91 µM (inactive); with Hs-578T, 45.6 µM (inactive); in the test on Malme-3M, 17.7 µM (inactive); with SF-295, 17.1 µM (inactive); with CCRF-CEM it was 19.4 µM (inactive). Besides, the GI50 with M14 is 15.5 µM (inactive); in the test with OVCAR-4, 18.6 µM (inactive); in the test on OVCAR-3, 27.9 µM (inactive); with NCI-H522, 24.4 µM (inactive); with SK-MEL-2 it was 17.5 µM (inactive); in the test with DU-145, 67.5 µM (inactive). In addition, the GI50 in the test with SNB-75 was 52.8 µM (inactive); in the test with MOLT-4 it was 19.8 µM (inactive); in the test with SF-268 it was 53.8 µM (inactive); in the test on UACC-62, 18.8 µM (inactive); in the test with OVCAR-8, 39.7 µM (inactive).
`CC(=O)c1ccc2c(c1)N(CCCN1CCN(CCO)CC1)c1ccccc1C2`: the GI50 in the test on A549 was 17.9 µM (inactive); in the test with UO-31 it was 23.8 µM (inactive); in the test with Hs-578T, 14.8 µM (inactive); in the test on Malme-3M it was 18.2 µM (inactive); with SF-295 it was 17.1 µM (inactive); in the test on CCRF-CEM, 11.7 µM (inactive). The GI50 with M14 was 13.6 µM (inactive); in the test on OVCAR-4, 15.1 µM (inactive); in the test on OVCAR-3, 15.5 µM (inactive); in the test on NCI-H522, 16.3 µM (inactive); in the test on HL-60, 13.8 µM (inactive); with SK-MEL-2 it was 18.3 µM (inactive). Moreover, the GI50 is 14.3 µM (inactive) in the test on DU-145; 16.6 µM (inactive) in the test on SNB-75; 18.4 µM (inactive) with MOLT-4; 17.8 µM (inactive) with SF-268; 10.8 µM (inactive) in the test on UACC-62; 16.7 µM (inactive) in the test on OVCAR-8.
For `CC1CC(N2CCOCC2)=Nc2ccccc2N1C` (configuration not stated), the GI50 in the test on A549 was > 100 µM (inactive); in the test with UO-31, > 100 µM (inactive); in the test on Hs-578T, > 100 µM (inactive); with Malme-3M it was 56.4 µM (inactive); with SF-295, > 100 µM (inactive); in the test with CCRF-CEM, > 100 µM (inactive). For the same molecule, the GI50 in the test with M14 was > 100 µM (inactive); in the test with OVCAR-4, > 100 µM (inactive); in the test on OVCAR-3 it was > 100 µM (inactive); in the test with NCI-H522, 98.9 µM (inactive); in the test on HL-60, > 100 µM (inactive); in the test with SK-MEL-2, > 100 µM (inactive). The GI50 in the test on DU-145 was > 100 µM (inactive); in the test on SNB-75 it was 0.0392 µM (active); in the test with MOLT-4, 95.5 µM (inactive); with SF-268, > 100 µM (inactive); in the test with UACC-62 it was > 100 µM (inactive); in the test on OVCAR-8 it was > 100 µM (inactive).
`CC(C)OC(=O)NNc1cc(Cl)ccc1Cl`: the GI50 with A549 is 64 µM (inactive); with UO-31, > 100 µM (inactive); in the test on Hs-578T, 81.5 µM (inactive); in the test on Malme-3M, 35.6 µM (inactive); in the test with SF-295, 62.8 µM (inactive); in the test on CCRF-CEM, 59.7 µM (inactive). Also, the GI50 was > 100 µM (inactive) in the test with M14; 61 µM (inactive) with HCC 2998; > 100 µM (inactive) in the test on OVCAR-3; 31.5 µM (inactive) with NCI-H522; 21.7 µM (inactive) in the test on HL-60; 65.8 µM (inactive) in the test with SK-MEL-2. Besides, the GI50 with DU-145 was > 100 µM (inactive); with SNB-75, 58.3 µM (inactive); in the test on MOLT-4, 0.0611 µM (active); in the test on SF-268, 44.8 µM (inactive); in the test with UACC-62 it was 43.7 µM (inactive); in the test with OVCAR-8 it was > 100 µM (inactive).
For `C=CCN(c1cc(OC)c2[nH]c(C(=O)OCC)c(C)c2c1[N+](=O)[O-])S(C)(=O)=O`, the GI50 was 22 µM (inactive) with A549; 21.5 µM (inactive) in the test on UO-31; 17.8 µM (inactive) in the test on Hs-578T; 15.7 µM (inactive) in the test with Malme-3M; 28.5 µM (inactive) in the test with SF-295; 26.3 µM (inactive) in the test on CCRF-CEM. Also, the GI50 was 30.8 µM (inactive) with M14; 32.4 µM (inactive) with OVCAR-4; 45.5 µM (inactive) with HCC 2998; 23.8 µM (inactive) in the test with OVCAR-3; 17.7 µM (inactive) in the test on NCI-H522; 15.8 µM (inactive) in the test on HL-60. For the same molecule, the GI50 in the test with SK-MEL-2 was 25.1 µM (inactive); in the test on DU-145 it was 24.7 µM (inactive); with SNB-75, 15.2 µM (inactive); in the test with MOLT-4 it was 12.6 µM (inactive); with SF-268, 26.4 µM (inactive); in the test on UACC-62, 26.1 µM (inactive). Further, the GI50 with OVCAR-8 was 28.6 µM (inactive).
For the molecule `CCOC(=O)C(Cl)(Cl)/S(=N\S(=O)(=O)c1ccccc1)NC(=O)c1ccccc1` (configuration not stated), the GI50 in the test with A549, in the test with UO-31, in the test on Hs-578T, in the test with Malme-3M, with SF-295 and with CCRF-CEM was > 100 µM (inactive) each time. Further, the GI50 was > 100 µM (inactive) with M14; > 100 µM (inactive) with OVCAR-4; > 100 µM (inactive) in the test with OVCAR-3; 0.65 µM (active) in the test on HL-60; > 100 µM (inactive) in the test with SK-MEL-2; > 100 µM (inactive) in the test on DU-145. The GI50 in the test with SR, with SNB-75, with MOLT-4, with SF-268, in the test with UACC-62 and in the test with OVCAR-8 was > 100 µM (inactive) each time.
Turning to `CC(C)CCCC(C)[C@H]1CC[C@H]2N/C(=N/c3ccccc3)CCC[C@]12C` (some centres not stated), the GI50 is 2.81 µM (inactive) in the test with A549; 1.62 µM (inactive) in the test with UO-31; 2.26 µM (inactive) in the test with Hs-578T; 2.67 µM (inactive) in the test on Malme-3M; 1.6 µM (inactive) with SF-295; 2.51 µM (inactive) in the test on CCRF-CEM. The GI50 was 1.87 µM (inactive) in the test on M14; 3.56 µM (inactive) with OVCAR-4; 2.29 µM (inactive) with OVCAR-3; 1.85 µM (inactive) with HL-60; 1.67 µM (inactive) in the test on SK-MEL-2; 6.52 µM (inactive) with DU-145. For the same molecule, the GI50 was 1.77 µM (inactive) in the test on SR; 1.88 µM (inactive) in the test with SNB-75; 1.64 µM (inactive) with MOLT-4; 2.06 µM (inactive) in the test on SF-268; 1.85 µM (inactive) with UACC-62; 0.893 µM (active) in the test on OVCAR-8.
As to `O=C1c2ccsc2C(=O)c2sc(CO)cc21`, the GI50 in the test with A549 is 0.0507 µM (active); with UO-31 it was 0.134 µM (active); in the test with Hs-578T, 0.0611 µM (active); in the test on Malme-3M it was 0.61 µM (active); with SF-295 it was 0.628 µM (active); in the test with CCRF-CEM it was 0.207 µM (active). In addition, the GI50 with M14 was < 0.0123 µM (active); with OVCAR-4, 0.167 µM (active); with HCC 2998, 3.52 µM (inactive); in the test with OVCAR-3, 1.59 µM (inactive); in the test with NCI-H522, 0.106 µM (active); with HL-60, 0.656 µM (active). Besides, the GI50 was 0.0929 µM (active) in the test with SK-MEL-2; 0.0984 µM (active) with SR; 0.0564 µM (active) in the test with SNB-75; 0.524 µM (active) in the test with MOLT-4; 1.11 µM (active) in the test with SF-268; 0.0553 µM (active) in the test on UACC-62. In addition, the GI50 in the test with OVCAR-8 was 0.113 µM (active).
Turning to `CC(C)(NC(=O)OCc1ccccc1)C(=O)NC(Cc1ccccc1)C(=O)O` (configuration not stated) (Cbz-[Aib]-[ξF]-OH), the GI50 in the test on A549, with UO-31, with Hs-578T, in the test on Malme-3M, in the test on SF-295 and with CCRF-CEM was > 100 µM (inactive) in each case. Besides, the GI50 in the test on M14, with OVCAR-4, in the test on OVCAR-3, with NCI-H522, in the test on SK-MEL-2 and with DU-145 was > 100 µM (inactive) throughout. Also, the GI50 in the test on SNB-75, with MOLT-4, in the test with UACC-62 and in the test with OVCAR-8 was > 100 µM (inactive) throughout.
Regarding `CC(OC(C)(C)C)C(NC(=O)C(CCCCNC(=O)OC(C)(C)C)NC(=O)C(Cc1c[nH]c2ccccc12)NC(=O)C(N)Cc1ccccc1)C(=O)NC(Cc1ccccc1)C(=O)NC1(C(=O)O)CCCC1` (configuration not stated) (H-FWK(Boc)T(tBu)F[Ac5c]-OH; configuration not given here), the GI50 in the test on A549, in the test on UO-31, in the test on Hs-578T, with Malme-3M, in the test with SF-295 and in the test with CCRF-CEM was > 100 µM (inactive) each time. Moreover, the GI50 in the test on M14, with OVCAR-4, in the test on HCC 2998, in the test with OVCAR-3, with NCI-H522 and in the test on SK-MEL-2 was > 100 µM (inactive) in each case. The GI50 in the test on DU-145, in the test on SNB-75, with MOLT-4, in the test on SF-268, in the test with UACC-62 and in the test on OVCAR-8 was > 100 µM (inactive) each time.

The values above are taken from ChEMBL document CHEMBL1201862, “PubChem BioAssay data set” (2004).
